One may read the IC50 as the point on the concentration scale where inhibition reaches its midpoint.

Consider 28 compounds from patent US11998539B2, “Substituted aminoquinolones as DGKalpha inhibitors for immune activation” (Bayer Aktiengesellschaft, priority 2019, dated 2024).

DGKα, sequence (P23743 other isoform, or with tags, fused parts or gaps): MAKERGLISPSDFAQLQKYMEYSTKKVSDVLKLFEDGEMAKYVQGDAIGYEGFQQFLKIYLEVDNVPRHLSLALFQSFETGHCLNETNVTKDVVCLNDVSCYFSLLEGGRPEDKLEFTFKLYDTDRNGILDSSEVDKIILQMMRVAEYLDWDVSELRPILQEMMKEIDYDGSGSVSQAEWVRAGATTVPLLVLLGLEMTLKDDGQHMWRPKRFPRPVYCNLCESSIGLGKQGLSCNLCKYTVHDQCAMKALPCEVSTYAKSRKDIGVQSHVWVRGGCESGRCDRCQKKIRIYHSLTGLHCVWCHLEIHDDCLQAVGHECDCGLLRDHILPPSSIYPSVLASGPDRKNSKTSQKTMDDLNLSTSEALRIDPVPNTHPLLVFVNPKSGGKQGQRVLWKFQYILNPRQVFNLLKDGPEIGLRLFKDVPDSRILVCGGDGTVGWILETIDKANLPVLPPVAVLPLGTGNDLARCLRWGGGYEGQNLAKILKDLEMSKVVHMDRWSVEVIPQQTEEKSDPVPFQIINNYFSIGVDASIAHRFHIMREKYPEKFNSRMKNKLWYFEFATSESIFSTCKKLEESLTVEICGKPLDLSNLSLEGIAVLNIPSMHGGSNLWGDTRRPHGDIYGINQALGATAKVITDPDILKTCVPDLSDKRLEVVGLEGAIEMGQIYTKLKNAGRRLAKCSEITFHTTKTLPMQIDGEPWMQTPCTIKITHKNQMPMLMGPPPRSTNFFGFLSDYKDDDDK

The target in the test is DGKα (Homo sapiens (Human), UniProt P23743). As to the kind of experiment: Human DGKα kinase activity inhibition assay (ADP-Glo). It is filed as biochemical. The settings on record: recombinant full-length human DGKα, 55 μM ATP, 7 μM 1,2-dioleoyl-sn-glycerol, read-out: IC50 values of examples in in vitro human DGKa kinase activity inhibition assays. The method, then:
Human DGKα Kinase Activity Inhibition Assay
Human DGKα inhibitory activity of compounds of the present invention was quantified employing the human DGKα kinase activity assay as described in the following paragraphs. In essence, the enzyme activity was measured by quantification of the adenosine-di-phosphate (ADP) generated as a co-product of the enzyme reaction via the “ADP-Glo™ Kinase Assay” kit from the company Promega. This detection system works as follows: In a first step the ATP not consumed in the kinase reaction is quantitatively converted to cAMP employing an adenylate cyclase (“ADP-Glo-reagent”), then the adenylate cyclase is stopped and the ADP generated in the kinase reaction converted to ATP, which subsequently generates in a luciferase-based reaction a glow-luminescence signal (“Kinase Detection Reagent”).
C-terminally FLAG-tagged, recombinant full-length human DGKα (expressed in baculovirus infected insect cells, purified using anti-Flag pulldown and size exclusion chromatography as described below, DGKa_hu_1) was used as enzyme. As substrate for the kinase 1,2-dioleoyl-sn-glycerol, reconstituted in octyl-β-D-glucopyranoside micelles, was used. […] Then 35 volumes of 50 mM MOPS buffer (pH 7.4) were added to yield a solution of 0.28 mM 1,2 dioleoyl-sn-glycerol and 200 mM […], which was aliquoted, flash-frozen in liquid nitrogen, and stored at −20° C. until use.
For the assay 50 nl of a 100-fold concentrated solution of the test compound in dimethyl sulfoxide (DMSO, Sigma) was pipetted into either a white 1536-well or a white low-volume 384-well microtiter plate (both Greiner Bio-One, Frickenhausen, Germany).
(In general: ADP-Glo first removes unused ATP, then detects ADP through luciferase.)
For the compound `Cn1ccc2c(F)cc(C3CCN(c4c(C(N)=O)c(=O)n(C)c5ccccc45)CC3)cc21` [Example 471, 4-[4-(4-fluoro-1-methyl-1H-indol-6-yl)piperidin-1-yl]-1-methyl-2-oxo-1,2-dihydroquinoline-3-carboxamide], the IC50 stood at 3.9 nM.
In the case of `COc1ccc(C2CCN(c3c(C#N)c(=O)n(C)c4cc(N5CCCC5=O)ccc34)CC2)cc1` [Example 96, 4-[4-(4-methoxyphenyl)piperidin-1-yl]-1-methyl-2-oxo-7-(2-oxopyrrolidin-1-yl)-1,2-dihydroquinoline-3-carbonitrile] it was 20 nM; in that of `Cn1c(=O)c(C(N)=O)c(N2CCC(c3nc4ccccc4o3)CC2)c2cccc(Cl)c21` [Example 309, 4-[4-(1,3-benzoxazol-2-yl)piperidin-1-yl]-8-chloro-1-methyl-2-oxo-1,2-dihydroquinoline-3-carboxamide], 101 nM.
In the case of `COc1ccccc1-c1csc(C2CCN(c3c(C(N)=O)c(=O)n(C)c4ccccc34)CC2)n1` [Example 477, 4-{4-[4-(2-methoxyphenyl)-1,3-thiazol-2-yl]piperidin-1-yl}-1-methyl-2-oxo-1,2-dihydroquinoline-3-carboxamide] it was 3.9 nM; in that of `COCc1ccc2oc(C3(C)CCN(c4c(C(N)=O)c(=O)n(C)c5ccccc45)CC3)nc2c1` [Example 490, 4-{4-[5-(methoxymethyl)-1,3-benzoxazol-2-yl]-4-methylpiperidin-1-yl}-1-methyl-2-oxo-1,2-dihydroquinoline-3-carboxamide], 7.8 nM.
In the case of `Cc1ccc2oc(C3(C)CCN(c4c(C#N)c(=O)n(C)c5cc(C6CC6)ccc45)CC3)nc2c1` [Example 250, 7-cyclopropyl-1-methyl-4-[4-methyl-4-(5-methyl-1,3-benzoxazol-2-yl)piperidin-1-yl]-2-oxo-1,2-dihydroquinoline-3-carbonitrile], the IC50 was 9.1 nM.
In the case of `Cn1c(=O)c(C#N)c(N2CCC(c3nc4ccc(Br)cc4o3)CC2)c2ccccc21` [Example 294, 4-[4-(6-bromo-1,3-benzoxazol-2-yl)piperidin-1-yl]-1-methyl-2-oxo-1,2-dihydroquinoline-3-carbonitrile] it was 12 nM.
In the case of `Cc1ccc2oc(C3CCN(c4c(C#N)c(=O)n(C)c5cc(F)ccc45)CC3)nc2c1` [Example 238, 7-fluoro-1-methyl-4-[4-(5-methyl-1,3-benzoxazol-2-yl)piperidin-1-yl]-2-oxo-1,2-dihydroquinoline-3-carbonitrile] it was 12 nM.
In the case of `Cc1ccc2oc(C3(C)CCN(c4c(C#N)c(=O)n(C)c5cc(F)ccc45)CC3)nc2c1` [Example 237, 7-fluoro-1-methyl-4-[4-methyl-4-(5-methyl-1,3-benzoxazol-2-yl)piperidin-1-yl]-2-oxo-1,2-dihydroquinoline-3-carbonitrile] it was 5 nM.
`Cc1ccc2oc(C3CCN(c4c(C#N)c(=O)n(C)c5ccc(Br)cc45)CC3)nc2c1` [Example 396, 6-bromo-1-methyl-4-[4-(5-methyl-1,3-benzoxazol-2-yl)piperidin-1-yl]-2-oxo-1,2-dihydroquinoline-3-carbonitrile]: the IC50 worked out at 0.9 nM.
As to `COc1cccc(-c2csc(C3CCN(c4c(C(N)=O)c(=O)n(C)c5ccccc45)CC3)n2)c1` [Example 476, 4-{4-[4-(3-methoxyphenyl)-1,3-thiazol-2-yl]piperidin-1-yl}-1-methyl-2-oxo-1,2-dihydroquinoline-3-carboxamide], the half-inhibitory concentration (IC50) was 7.1 nM.
In the case of `Cn1c(=O)c(C(N)=O)c(N2CCC(c3nnc(-c4cccc(Cl)c4)o3)CC2)c2ccccc21` [Example 464, 4-{4-[5-(3-chlorophenyl)-1,3,4-oxadiazol-2-yl]piperidin-1-yl}-1-methyl-2-oxo-1,2-dihydroquinoline-3-carboxamide] it was 123 nM; in that of `Cc1ccc2cc(C3CCN(c4c(C#N)c(=O)n(C)c5ccccc45)CC3)ccc2n1` [Example 371, 1-methyl-4-[4-(2-methylquinolin-6-yl)piperidin-1-yl]-2-oxo-1,2-dihydroquinoline-3-carbonitrile], 14 nM.
In the case of `COc1cc2c(cc1Br)c(N1CCC(c3nc(-c4ccccc4C)no3)CC1)c(C#N)c(=O)n2C` [Example 530, 6-bromo-7-methoxy-1-methyl-4-{4-[3-(2-methylphenyl)-1,2,4-oxadiazol-5-yl]piperidin-1-yl}-2-oxo-1,2-dihydroquinoline-3-carbonitrile] it was 1.8 nM; in that of `Cc1ccc2oc(C3(F)CCN(c4c(C(N)=O)c(=O)n(C)c5cc(OC6CCOC6)ccc45)CC3)nc2c1` (stereo not shown) [Example 509, 4-[4-fluoro-4-(5-methyl-1,3-benzoxazol-2-yl)piperidin-1-yl]-1-methyl-2-oxo-7-[(oxolan-3-yl)oxy]-1,2-dihydroquinoline-3-carboxamide], 2 nM.
In the case of `Cn1c(=O)c(C#N)c(N2CCC(c3nc4ccccc4s3)CC2)c2ccc(N3CCCC3=O)cc21` [Example 36, 4-[4-(1,3-benzothiazol-2-yl)piperidin-1-yl]-1-methyl-2-oxo-7-(2-oxopyrrolidin-1-yl)-1,2-dihydroquinoline-3-carbonitrile] it was 8.3 nM; in that of `Cc1ccc2oc(C3(C)CCN(c4c(C#N)c(=O)n(C)c5cc(CC6COC6)ccc45)CC3)nc2c1` [Example 285, 1-methyl-4-[4-methyl-4-(5-methyl-1,3-benzoxazol-2-yl)piperidin-1-yl]-7-[(oxetan-3-yl)methyl]-2-oxo-1,2-dihydroquinoline-3-carbonitrile], 10 nM.
As to `Cn1c(=O)c(C(N)=O)c(N2CCC(C)(c3nc4ccccc4o3)CC2)c2ccc(Cl)cc21` [Example 297, 4-[4-(1,3-benzoxazol-2-yl)-4-methylpiperidin-1-yl]-7-chloro-1-methyl-2-oxo-1,2-dihydroquinoline-3-carboxamide], the IC50 was 0.6 nM.
Turning to `Cc1ccc2oc(C3(C)CCN(c4c(C#N)c(=O)n(C)c5c(OC6CC6)cccc45)CC3)nc2c1` [Example 262, 8-(cyclopropyloxy)-1-methyl-4-[4-methyl-4-(5-methyl-1,3-benzoxazol-2-yl)piperidin-1-yl]-2-oxo-1,2-dihydroquinoline-3-carbonitrile], the IC50 was found to be 36 nM.
Take `Cn1c(=O)c(C(N)=O)c(N2CCC(c3nc4ccccc4s3)CC2)c2ccccc21` [Example 113, 4-[4-(1,3-benzothiazol-2-yl)piperidin-1-yl]-1-methyl-2-oxo-1,2-dihydroquinoline-3-carboxamide]: the IC50 is 3.5 nM.
Under `Cc1ccc2oc(C3CCN(c4c(C(N)=O)c(=O)n(C)c5cc(F)c(C#N)cc45)CC3)nc2c1` [Example 564, 6-cyano-7-fluoro-1-methyl-4-[4-(5-methyl-1,3-benzoxazol-2-yl)piperidin-1-yl]-2-oxo-1,2-dihydroquinoline-3-carboxamide] stands 3.3 nM; under `CCCc1noc(C2CCN(c3c(C#N)c(=O)n(C)c4ccccc34)CC2)n1` [Example 148, 1-methyl-2-oxo-4-[4-(3-propyl-1,2,4-oxadiazol-5-yl)piperidin-1-yl]-1,2-dihydroquinoline-3-carbonitrile], 369 nM.
In the case of `Cn1c(=O)c(C#N)c(N2CCC(c3nc4ccccc4o3)CC2)c2ccc(N3CCCC3=O)cc21` [Example 35, 4-[4-(1,3-benzoxazol-2-yl)piperidin-1-yl]-1-methyl-2-oxo-7-(2-oxopyrrolidin-1-yl)-1,2-dihydroquinoline-3-carbonitrile] it was 7.8 nM.
Under `Cc1cccc(-n2ccc(C3CCN(c4c(C(N)=O)c(=O)n(C)c5ccccc45)CC3)n2)c1` [Example 472, 1-methyl-4-{4-[1-(3-methylphenyl)-1H-pyrazol-3-yl]piperidin-1-yl}-2-oxo-1,2-dihydroquinoline-3-carboxamide] stands 6.7 nM.
For the compound `Cn1cc(C(=O)C(F)(F)F)c2cc(C3CCN(c4c(C#N)c(=O)n(C)c5ccccc45)CC3)ccc21` [Example 72, 1-methyl-4-{4-[1-methyl-3-(trifluoroacetyl)-1H-indol-5-yl]piperidin-1-yl}-2-oxo-1,2-dihydroquinoline-3-carbonitrile], the 50% inhibitory concentration (IC50) amounted to 30 nM.
Consider `Cn1c(=O)c(C(N)=O)c(N2CCC(c3nc4ccccc4s3)CC2)c2ccc(N3CCCC3=O)cc21` [Example 116, 4-[4-(1,3-benzothiazol-2-yl)piperidin-1-yl]-1-methyl-2-oxo-7-(2-oxopyrrolidin-1-yl)-1,2-dihydroquinoline-3-carboxamide], for which the IC50 amounted to 36 nM.
Under `Cn1c(=O)c(C#N)c(N2CCC(F)(c3nc4ccccc4s3)CC2)c2ccccc21` [Example 16, 4-[4-(1,3-benzothiazol-2-yl)-4-fluoropiperidin-1-yl]-1-methyl-2-oxo-1,2-dihydroquinoline-3-carbonitrile] stands 9.9 nM; under `COCc1ccc2c(c1)c(N1CCC(C)(c3nc4cc(C)ccc4o3)CC1)c(C#N)c(=O)n2C` [Example 213, 6-(methoxymethyl)-1-methyl-4-[4-methyl-4-(5-methyl-1,3-benzoxazol-2-yl)piperidin-1-yl]-2-oxo-1,2-dihydroquinoline-3-carbonitrile], 39 nM.
